Test results reported in patent US20060211651A1, “Persulfated oligosaccharide acting on selectins and chemokine” (Taisho Pharmaceutical Co., Ltd., priority 2002, published 2006).

How the values were obtained:
L-selectin-Ig = target: T1, L-selectin-Ig (Homo sapiens, UniProt P14151); assay: Immunoprecipitation of versican from ACHN conditioned medium with L-selectin-Ig; format: binding; details: 30 mM sodium chlorate; ACHN cells; FIG. 1
T1 construct: purchased R & D Systems Inc
Protocol: (§1) ACHN cells were pre-incubated at 37° C. for 6 hours in RPMI 1640 containing 10% by weight of bovine fetal serum in the presence or absence of 30 mM sodium chlorate. A confluent monolayer of the resulting ACHN cells was labeled by incubation for 18 hours in the presence or absence of 30 mM sodium chlorate, in a medium of either of:
(§2) Immunoprecipitation was performed as follows, according to the method described in the publication of Kawashima, H. et al. [Int. Immunol., 11, 393-405 (1999); all teachings of which are hereby incorporated by reference] except that beads were washed using buffer A (0.05% Tween 20, 20 mM HEPES-NaOH, 0.15M NaCl, 1 mM CaCl2, 1 mM MgCl2, pH6.8).
(§3) Each of the antibody and the Ig chimera shown in FIG. 1 (equivalent to 10 μg) was coupled to Protein A-Sepharose column (equivalent to 10 μL) by a conventional method, to obtain antibody-coupled Protein A-Sepharose or Ig chimera-coupled Protein A-Sepharose. […]
(§4) Thereafter, the beads were washed with the buffer A, to obtain precipitates. The resulting precipitates were subjected to SDS-agarose-PAGE, and thereafter, signal ascribed to ^35S label on a gel was detected by autoradiography.

ACHN cells = assay: Sulfation of versican in [35S]sulfate-labeled ACHN cells; format: cell-based; details: 30 mM sodium chlorate, relative to the case without treatment
Protocol: as §1
(i) Eagle minimum basal medium SMEM [sulfate-free; manufactured by BioWhittaker] containing 2% by weight of dialyzed bovine fetal serum in the presence of 0.2 mCi/ml [^35S]Na2SO4 [trade name: Sulfer-35; manufactured by ICN Radiochemicals], or
(ii) methionine-free RPMI 1640 medium [manufactured by Invitrogen] containing 2% by weight of dialyzed bovine fetal serum in the presence of 0.2 mCi/ml [^35S]-methionine [manufactured by ICN Radiochemicals].
as §2, with “pH6.8). […]” for “pH6.8).”
as §4

P-selectin-Ig = assay: Immunoprecipitation of versican from ACHN conditioned medium with P-selectin-Ig; format: binding; details: 30 mM sodium chlorate; ACHN cells; FIG. 1
Protocol: as §1, §2, §3, §4

CD44-Ig = assay: Immunoprecipitation of versican from ACHN conditioned medium with CD44-Ig; format: binding, human; details: 30 mM sodium chlorate; ACHN cells; FIG. 1
Protocol: as §1, §2, §3, §4

T1 sequence (P14151 with tags, fused parts or gaps limits assumed): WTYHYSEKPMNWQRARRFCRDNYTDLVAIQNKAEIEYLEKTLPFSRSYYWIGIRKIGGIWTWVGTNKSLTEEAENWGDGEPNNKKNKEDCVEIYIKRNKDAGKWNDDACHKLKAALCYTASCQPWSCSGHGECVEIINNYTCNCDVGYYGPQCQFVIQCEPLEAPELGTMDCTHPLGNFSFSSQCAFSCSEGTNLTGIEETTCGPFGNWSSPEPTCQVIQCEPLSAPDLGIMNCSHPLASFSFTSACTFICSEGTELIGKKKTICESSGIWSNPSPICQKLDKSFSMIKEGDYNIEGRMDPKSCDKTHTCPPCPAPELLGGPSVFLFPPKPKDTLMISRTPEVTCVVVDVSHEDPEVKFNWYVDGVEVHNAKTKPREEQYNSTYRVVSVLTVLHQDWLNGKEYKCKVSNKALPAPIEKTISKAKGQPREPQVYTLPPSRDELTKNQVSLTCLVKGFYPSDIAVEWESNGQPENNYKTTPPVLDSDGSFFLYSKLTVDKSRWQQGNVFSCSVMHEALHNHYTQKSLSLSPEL

Structure (SMILES): [Na+].[O-][Cl+2]([O-])[O-] [sodium chlorate]
- effect of treatment on interaction between versican and L-selectin-Ig (L-selectin-Ig): inhibited
- inhibition of sulfation (ACHN cells): more than 90%
- effect of treatment on interaction between versican and P-selectin-Ig (P-selectin-Ig): inhibited
- effect of treatment on interaction between versican and CD44-Ig (CD44-Ig): not inhibited
